Patent publication US8658638B2, “Mineralocorticoid receptor antagonist and methods of use” (priority 2009, dated 2014)
pEC50, pIC50, pKi: −log10 of the molar value.

Legend:
[1] = biological target: T1, human glucocorticoid receptor (GR) (Homo sapiens, UniProt P04150); test: Nuclear hormone receptor panel screen (luciferase reporter, HEK293), GR; assay type: cell-based
T1 construct: expressed in transfected cells; host or cells: HEK293
T1 sequence (P04150 1-777): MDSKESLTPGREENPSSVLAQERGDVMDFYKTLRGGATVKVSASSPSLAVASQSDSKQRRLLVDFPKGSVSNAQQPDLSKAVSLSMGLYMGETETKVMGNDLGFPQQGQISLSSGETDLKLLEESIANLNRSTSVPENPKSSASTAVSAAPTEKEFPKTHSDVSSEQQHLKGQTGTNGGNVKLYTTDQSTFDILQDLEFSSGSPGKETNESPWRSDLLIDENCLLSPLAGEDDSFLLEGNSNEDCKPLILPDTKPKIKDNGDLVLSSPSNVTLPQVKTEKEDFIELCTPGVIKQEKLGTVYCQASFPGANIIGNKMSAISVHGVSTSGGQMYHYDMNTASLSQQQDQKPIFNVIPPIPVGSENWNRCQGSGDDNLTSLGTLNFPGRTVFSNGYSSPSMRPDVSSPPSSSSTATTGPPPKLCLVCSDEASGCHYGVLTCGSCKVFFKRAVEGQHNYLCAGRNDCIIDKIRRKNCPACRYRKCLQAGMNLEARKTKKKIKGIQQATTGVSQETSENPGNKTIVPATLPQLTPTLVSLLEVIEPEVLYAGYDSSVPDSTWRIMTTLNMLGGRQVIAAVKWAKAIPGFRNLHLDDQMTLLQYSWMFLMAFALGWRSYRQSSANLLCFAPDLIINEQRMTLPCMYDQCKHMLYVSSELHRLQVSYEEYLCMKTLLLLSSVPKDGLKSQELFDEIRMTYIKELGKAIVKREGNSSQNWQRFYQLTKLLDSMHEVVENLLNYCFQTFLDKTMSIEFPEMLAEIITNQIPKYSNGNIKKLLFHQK
Text: Aldosterone exerts it physiological effects through interaction with the mineralocorticoid receptor. Following cytoplasmic binding of aldosterone to MR, the ligand receptor complex translocates to the cell nucleus where it binds to hormone response elements on DNA to initiate expression of target genes. […] The solvents, reagents, and ligands employed in the functional assay are readily available from commercial sources, or can be prepared by one of ordinary skill in the art.
Human embryonic kidney HEK293 cells are transfected with steroid hormone receptor and reporter gene plasmids using a suitable transfection reagent such as Fugene™. […] After 24 hours incubation with test compounds, cells are lysed and luciferase activity is determined using standard techniques.
Data are fitted to a four parameter-fit logistic curve to determine EC50 values. […] IC50 values are determined similarly using antagonist mode assay data. In the antagonist mode, percent inhibitions are determined by comparing test compound activity in the presence of low concentration of agonist (0.08 nM aldosterone for MR, 0.25 nM dexamethasone for GR, 0.66 nM of methyltrienolone for AR, and 0.08 nM of promegestone for PR) to the response produced by the same low concentration of agonist in the absence of test compound.

[2] = biological target: T2, human GR (glucocorticoid receptor) (Homo sapiens, UniProt P04150); test: Steroid nuclear hormone receptor binding assay, GR; conditions: [3H]-dexamethasone, HEK293 lysate overexpressing human GR
T2 construct: expressed in transfected cells; host or cells: HEK293 (293-GR lysate)
T2 sequence (P04150 1-777): T1 sequence (P04150 1-777)
Protocol: Cell lysates from human embryonic kidney HEK293 cells overexpressing human MR (mineralocorticoid receptor), GR (glucocorticoid receptor), AR (androgen receptor), or PR (progesterone receptor) are used for receptor-ligand competition binding assays to determine Ki values.
Briefly, steroid receptor competition binding assays are run in a buffer containing 20 mM HEPES buffer (pH=7.6), 0.2 mM EDTA, 75 mM NaCl, 1.5 mM MgCl2, 20% glycerol, 20 mM sodium molybdate, 0.2 mM DTT (dithiothreitol), 20 μg/mL aprotinin and 20 μg/mL leupeptin (assay buffer). Typically, steroid receptor binding assays include radio-labeled ligands, such as 0.25 nM [^3H]-aldosterone for MR binding, 0.7 nM [^3H]-dexamethasone for GR binding, 0.36 nM [^3H]-methyltrienolone for AR binding, and 0.29 nM [^3H]-methyltrienolone for PR binding, and either 20 μg 293-MR lysate, 20 μg 293-GR lysate, 22 μg 293-AR lysate, or 40 μg 293-PR lysate per well. Assays are typically run in 96-well format. Competing test compounds are added at various concentrations ranging from about 0.01 nM to 10 μM. Non-specific binding is determined in the presence of 500 nM aldosterone for MR binding, 500 nM dexamethasone for GR binding, or 500 nM methyltrienolone for AR and PR binding. […] After an incubation of 2 hours, plates are read in a Wallac Microbeta counter. […]

## O=c1[nH]c2cc(/C=C3\c4ccccc4COc4cc(F)ccc43)ccc2n1[C@@H]1C[C@@H]2COCCN2C1 [Compound (I), 5-((E)-(3-fluorodibenzo[b,e]oxepin-11(6H)-ylidene)methyl)-1-((7R,8aR)-hexahydro-1H-pyrrolo[2,1-c][1,4]oxazin-7-yl)-1H-benzo[d]imidazol-2(3H)-one]
[1]; agonist mode
  pEC50: < 5.00
[1]; antagonist mode, 0.25 nM dexamethasone
  pIC50: < 5.00
[2]
  pKi: ~6.17
